Results reported in patent US12186283B2, “Bismuth-thiol compositions and methods of use” (Microbion Corporation, priority 2018, dated 2025).
Converted amounts (≈) assume the structure as drawn. “And” between values parts separate entries of the source, which are not always exact repeats. Equal values may be shown once. Read-outs that look alike come from different tables or passages of the source.

Tests used:
[1] = tested on: Burkholderia cepacia complex; test: Checkerboard FIC assay, BisEDT with CF agents (Example 10); format: cell-based, Burkholderia spp.
P. aeruginosa = test: as above; format: cell-based, Pseudomonas aeruginosa; conditions: for MICB: Meropenem MIC in combination with BisEDT
[2] = tested on: Enterococcus spp. (E. faecalis, E. faecium); test: Broth microdilution MIC (Example 11); format: cell-based; conditions: VRE, VRE
Pseudomonas aeruginosa = conditions: P. aeruginosa MMX 103 (ATCC 27853); cited from earlier work
[3] = tested on: S. pneumoniae (pneumococci); conditions: S. pneumoniae MMX 6837 (ATCC 49619); cited from earlier work
Escherichia coli = conditions: E. coli MMX 102 (ATCC 25922); cited from earlier work
[4] = tested on: beta-hemolytic streptococci (S. pyogenes, S. agalactiae); test: Broth microdilution MIC (Example 11); format: cell-based, Streptococcus pyogenes, Streptococcus agalactiae
[5] = tested on: Staphylococcus aureus (MRSA); conditions: S. aureus MMX 101 (ATCC 29213); cited from earlier work
Candida spp. [6] = conditions: C. parapsilosis ATCC 22019, CLSI established QC range, cited from earlier work
Candida spp. [7] = test: Broth microdilution MIC, yeast (Example 13), group statement and QC; format: cell-based; conditions: C. parapsilosis ATCC 22019; 24 hr; comparators, single value
E. coli ATCC 25922 = test: Broth microdilution MIC, QC organism (Example 13, Table 110); format: cell-based, Escherichia coli
Description: (§1) MECs were only reported where observed.

Aspergillus spp. = test: Broth microdilution MIC/MEC, mold (Example 13); format: cell-based; conditions: Aspergillus spp.
Candida krusei [8] = conditions: C. krusei ATCC 6258, CLSI established QC range, cited from earlier work
S. aureus ATCC 29213 = test: Broth microdilution MIC, QC organism (Example 13, Table 110); format: cell-based, Staphylococcus aureus
Description: as §1

[9] = tested on: Candida spp. (C. parapsilosis, C. albicans, C. glabrata, C. tropicalis); conditions: C. parapsilosis MMX 2323 (ATCC 22019), cited from earlier work
Candida krusei [10] = test: Broth microdilution MIC, yeast (Example 13); format: cell-based; conditions: C. krusei ATCC 6258 (QC, Table 110), comparators, single value
[11] = P. aeruginosa 6322, Meropenem in combination with BisEDT, checkerboard rows C-G

## C[C@@H](O)[C@H]1C(=O)N2C(C(=O)O)=C(S[C@@H]3CN[C@H](C(=O)N(C)C)C3)[C@H](C)[C@H]12 [Meropenem, reference compound]
[1]; B. cenocepacia 548, FIC of Meropenem in combination with BisEDT
  FICB: 1
[1]; B. cenocepacia 548, MIC of Meropenem in combination with BisEDT
  MICB: 4 µg/mL
[1]; B. cenocepacia 813, FIC of Meropenem in combination with BisEDT
  FICB: 1
[1]; B. cepacia 546, Meropenem FIC in combination with BisEDT, per checkerboard row
  FICB: 1 and 2
[1]; B. cepacia 546, Meropenem MIC in combination with BisEDT, per checkerboard row
  MICB: 4 µg/mL and 8 µg/mL
[1]; B. cepacia 1793, Meropenem FIC in combination with BisEDT, per checkerboard row
  FICB: 2 and 4
[1]; B. cepacia 1793, Meropenem MIC in combination with BisEDT, per checkerboard row
  MICB: 8 µg/mL and 16 µg/mL
[1]; B. multivorans 1795, MIC of Meropenem in combination with BisEDT
  MICB: 4 µg/mL
[1]; B. multivorans 1795, Meropenem alone, panel with BisEDT, read-out: Drug B MIC
  MIC: 4 µg/mL
P. aeruginosa; [11]
  FICB: 1
  MICB (Drug B concentration in combination): 16 µg/mL
P. aeruginosa; P. aeruginosa 8798, Meropenem FIC in combination with BisEDT, per checkerboard row
  FICB: 1
P. aeruginosa; P. aeruginosa 8798, per checkerboard row
  MICB: 32 µg/mL
P. aeruginosa; P. aeruginosa 9108, Meropenem FIC in combination with BisEDT, per checkerboard row
  FICB: 1
P. aeruginosa; P. aeruginosa 9108, per checkerboard row
  MICB: 1 µg/mL
[2]; Enterococcus faecium, E. faecium MMX 485, vanA, LevR, CipR, EryR, read-out: MIC
  MIC: > 64 µg/mL
Pseudomonas aeruginosa
  CLSI QC range (MIC): (0.25-1)
[3]
  MIC, CLSI QC range: (0.06-0.25) μg/mL
Escherichia coli
  CLSI QC range (MIC): (0.008-0.06) μg/mL
[4]; S. agalactiae MMX 3741, ERY^R CC^R, read-out: MIC
  MIC: 0.03 µg/mL (≈ 0.0782 µM)
[4]; S. agalactiae MMX 3743, ERY^R CC^R, read-out: MIC
  MIC: 0.06 µg/mL (≈ 0.156 µM)
[4]; S. agalactiae MMX 4077, ERY^R CC^R, read-out: MIC
  MIC: 0.06 µg/mL (≈ 0.156 µM)
[4]; S. agalactiae MMX 4079, ERY^R CC^R Pen^R MEM^R, read-out: MIC
  MIC: 8 µg/mL (≈ 20.9 µM)
[4]; S. agalactiae MMX 4086, ERY^R CC^R, read-out: MIC
  MIC: 0.06 µg/mL (≈ 0.156 µM)

## CN[C@H](CC(C)C)C(=O)N[C@H]1C(=O)N[C@@H](CC(N)=O)C(=O)N[C@H]2C(=O)N[C@H]3C(=O)N[C@H](C(=O)N[C@H](C(=O)O)c4cc(O)cc(O)c4-c4cc3ccc4O)[C@H](O)c3ccc(c(Cl)c3)Oc3cc2cc(c3O[C@@H]2O[C@H](CO)[C@@H](O)[C@H](O)[C@H]2O[C@H]2C[C@](C)(N)[C@H](O)[C@H](C)O2)Oc2ccc(cc2Cl)[C@H]1O [vancomycin, reference compound]
[2]; E. faecalis MMX 8961, LevR, CipR, EryR
  MIC: >64 µg/mL
[2]; E. faecalis MMX 8962, LevR, CipR, EryR
  MIC: >64 µg/mL
[2]; E. faecium MMX 485, vanA, LevR, CipR, EryR
  MIC: >64 µg/mL
[2]; Enterococcus faecalis
  MIC: > 64 µg/mL
[2]; Enterococcus faecium
  MIC: > 64 µg/mL
[5]
  CLSI QC range (MIC): (0.5-2) μg/mL
[3]
  MIC, CLSI QC range: (0.12-0.5) μg/mL
[4]; S. agalactiae MMX 3741, ERY^R CC^R
  MIC: 0.5 µg/mL (≈ 0.345 µM)
[4]; S. agalactiae MMX 3743, ERY^R CC^R
  MIC: 0.5 µg/mL (≈ 0.345 µM)
[4]; S. agalactiae MMX 4077, ERY^R CC^R
  MIC: 0.5 µg/mL (≈ 0.345 µM)
[4]; S. agalactiae MMX 4079, ERY^R CC^R Pen^R MEM^R
  MIC: 2 µg/mL (≈ 1.38 µM)
[4]; S. agalactiae MMX 4086, ERY^R CC^R
  MIC: 1 µg/mL (≈ 0.69 µM)

## OC(Cn1cncn1)(Cn1cncn1)c1ccc(F)cc1F [fluconazole, reference compound]
Candida spp. [6]; 24 hr
  QC Range 24 hr: 0.5-4
Candida spp. [6]; 48 hr
  QC Range 48 hr: 1-4
Candida spp. [7]
  MIC 24 hr: 1 µg/mL (≈ 3.27 µM)
E. coli ATCC 25922
  MIC 24 hr: > 64 µg/mL
Aspergillus spp.
  activity: inactive
Candida krusei [8]; 24 hr
  QC Range 24 hr: 8-64
Candida krusei [8]; 48 hr
  QC Range 48 hr: 16-128
S. aureus ATCC 29213
  MIC 24 hr: > 64 µg/mL
[9]; 24 hr
  MIC, CLSI QC range: 0.5 to 4 µg/mL
[9]; 48 hr
  MIC, CLSI QC range: 1 to 4 µg/mL
Candida krusei [10]; 24 hr
  MIC 24 hr: 16 µg/mL (≈ 52.2 µM)
Candida krusei [10]; 48 hr
  MIC 48 hr: 32 µg/mL (≈ 104 µM)
